Measurements taken from patent US10654837B2, “Sulphamoylaryl derivatives and use thereof as medicaments for the treatment of liver fibrosis” (Janssen Pharmaceutica NV, priority 2017, dated 2020).

Molecular target: T1, 5HTR2B (Homo sapiens, UniProt P41595)
T1 construct: host or cells: human Maverick/293 cells
Test: 5HTR2B antagonist activity, calcium mobilization assay in human Maverick/293 cells (serotonin as agonist)
Assay type: cell-based
Details: intracellular calcium, emission 525 nm, read-out: Ca assay IC50
Summary of the method: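 Calcium mobilization read over 80 s at ex 485/em 525 nm after serotonin addition. Before that, 2 h serum-free starvation, 50 min dye loading at 37 °C, and 15-30 min antagonist exposure. IC50 from sigmoidal fit of peak % inhibition.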

T1 sequence (P41595 whole entry): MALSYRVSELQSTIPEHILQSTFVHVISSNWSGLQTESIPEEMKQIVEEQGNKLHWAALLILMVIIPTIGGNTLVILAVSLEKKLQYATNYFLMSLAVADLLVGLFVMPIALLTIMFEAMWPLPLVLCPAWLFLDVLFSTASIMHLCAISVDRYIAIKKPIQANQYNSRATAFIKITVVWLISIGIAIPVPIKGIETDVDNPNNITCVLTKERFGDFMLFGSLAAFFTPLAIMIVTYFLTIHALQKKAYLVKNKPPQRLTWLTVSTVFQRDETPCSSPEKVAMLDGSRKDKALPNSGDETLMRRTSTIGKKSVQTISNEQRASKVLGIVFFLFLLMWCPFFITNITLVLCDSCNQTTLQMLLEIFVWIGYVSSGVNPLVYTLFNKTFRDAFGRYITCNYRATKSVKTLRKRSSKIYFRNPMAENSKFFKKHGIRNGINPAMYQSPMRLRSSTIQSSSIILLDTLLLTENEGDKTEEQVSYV

| IC50 | SMILES |
| --- | --- |
| 50 nM | COc1ccc(N(C)S(=O)(=O)C2CCOC2)cc1C(=O)Nc1ccc(F)c(C)c1 (single isomer, unassigned) [Compound 204a, (R*)—N-(4-Fluoro-3-methylphenyl)-2-methoxy-5-(N-methyltetrahydrofuran-3-sulfonamido)benzamide] |
| 2.8 nM | COc1ccc(NS(=O)(=O)[C@@H]2CCOC2)cc1C(=O)Nc1ccc(F)c(C)c1 (single isomer, unassigned) [Compound 202b, (R*)N-4-fluoro-3-methylphenyl)-2-methoxy-5-(tetrahydrofuran-3-sulfonamido)benzamide] |
| 4.3 nM | COc1ccc(S(=O)(=O)N[C@H](C)CO)cc1C(=O)Nc1ccc(F)c(C(F)F)c1 [Compound 35b, (R)—N-(3-(Difluoromethyl)-4-fluorophenyl)-5-(N-(1-hydroxypropan-2-yl)sulfamoyl)-2-methoxybenzamide] |
| 1 nM | COc1ccc(S(=O)(=O)N[C@H]2C[C@@H](O)C2)cc1C(=O)Nc1ccc(F)cc1F [Compound 145b, N-(2,4-difluorophenyl)-5-(N-((cis)-3-hydroxycyclobutyl)sulfamoyl)-2-methoxybenzamide] |
| 0.2 nM | COc1ccc(S(=O)(=O)N[C@@H](C)C(N)=O)cc1C(=O)Nc1ccccc1Cl [Compound 59a] |
| 3.4 nM | COc1ccc(S(=O)(=O)N[C@@H](C)CO)cc1C(=O)Nc1ccc(F)cc1 [Compound 49a, (S)—N-(4-Fluorophenyl)-5-(N-(1-hydroxypropan-2-yl)sulfamoyl)-2-methoxybenzamide] |
| 1 nM | COc1ccc(NS(=O)(=O)[C@H]2CCOC2)cc1C(=O)Nc1ccc(F)c(C)c1 (single isomer, unassigned) [Compound 202a, (S*)N-4-fluoro-3-methylphenyl)-2-methoxy-5-(tetrahydrofuran-3-sulfonamido)benzamide] |
| 17.1 nM | COc1ccc(S(=O)(=O)N[C@H]2C[C@H](O)C2)cc1C(=O)Nc1cc(C)ccc1Cl [Compound 137a, N-(2-chloro-5-methylphenyl)-5-(N-((trans)-3-hydroxycyclobutyl)sulfamoyl)-2-methoxybenzamide] |
| 0.2 nM | COc1ccc(S(=O)(=O)NC2CC[C@H](O)C2)cc1C(=O)Nc1ccccc1Cl (some centres unmarked) [Compound 57a] |
| 1.2 nM | COc1ccc(S(=O)(=O)NC2CCN(C)C2=O)cc1C(=O)Nc1ccccc1Cl (single isomer, unassigned) [Compound 54b, (R*)—N-(2-Chlorophenyl)-2-methoxy-5-(N-(1-methyl-2-oxopyrrolidin-3-yl)sulfamoyl)benzamide] |
| 4.6 nM | COc1ccc(S(=O)(=O)NC(C)C(F)(F)F)cc1C(=O)Nc1ccc(F)c(C)n1 (single isomer, unassigned) [Compound 29b, (R*)—N-(5-Fluoro-6-methylpyridin-2-yl)-2-methoxy-5-(N-(1,1,1-trifluoropropan-2-yl)sulfamoyl)benzamide] |

More lines, now with the values behind:

| SMILES | IC50 |
| --- | --- |
| COc1ccc(S(=O)(=O)N[C@H]2CCOC2)cc1C(=O)Nc1ccc(Cl)cc1Cl [Compound 85, (S)—N-(2,4-Dichlorophenyl)-2-methoxy-5-(N-(tetrahydrofuran-3-yl)sulfamoyl) benzamide] | 1.5 nM |
| COc1ccc(S(=O)(=O)N[C@H]2C[C@@H](O)C2)cc1C(=O)Nc1ccccc1Cl [Compound 155, N-(2-Chlorophenyl)-5-(N-((cis)-3-hydroxycyclobutyl)sulfamoyl)-2-methoxy benzamide] | 0.2 nM |
| COc1ccc(S(=O)(=O)NC2CCCC[C@H]2O)cc1C(=O)Nc1ccc(F)c(C)n1 (stereo in doubt) [Compound 28b, N-(5-Fluoro-6-methylpyridin-2-yl)-5-(N-((trans)-2-hydroxycyclohexyl)sulfamoyl)-2-methoxybenzamide] | 119 nM |
| Cc1nc(NC(=O)c2cc(S(=O)(=O)N[C@H]3CCOC3)ccc2OC(C)C)ccc1F [Compound 197, (S)—N-(5-fluoro-6-methylpyridin-2-yl)-2-isopropoxy-5-(N-(tetrahydrofuran-3-yl)sulfamoyl)benzamide] | 5.3 nM |
| COc1ccc(S(=O)(=O)N[C@H]2CCOC2)cc1C(=O)Nc1ccc(F)c(F)c1F [Compound 88, (S)-2-Methoxy-5-(N-(tetrahydrofuran-3-yl)sulfamoyl)-N-(2,3,4-trifluorophenyl) benzamide] | 28 nM |
| COc1ccc(S(=O)(=O)N[C@H]2CCOC2)cc1C(=O)Nc1cccc(F)c1F [Compound 113, (S)—N-(2,3-Difluorophenyl)-2-methoxy-5-(N-(tetrahydrofuran-3-yl)sulfamoyl) benzamide] | 17 nM |
| COc1ccc(S(=O)(=O)NC2CCCCC2)cc1C(=O)Nc1ccc(F)c(C)n1 [Compound 20, 5-(N-Cyclohexylsulfamoyl)-N-(5-fluoro-6-methylpyridin-2-yl)-2-methoxy benzamide] | 4.4 nM |
| [2H]C([2H])([2H])Oc1ccc(S(=O)(=O)N[C@H]2CCOC2)cc1C(=O)Nc1ccc(F)cn1 [Compound 193, (S)—N-(5-fluoropyridin-2-yl)-2-(methoxy-d3)-5-(N-(tetrahydrofuran-3-yl)sulfamoyl)benzamide] | 3.2 nM |
| COc1ccc(S(=O)(=O)N[C@H]2CCOC2)cc1C(=O)Nc1cccc(C#N)c1 [Compound 102, (S)—N-(3-cyanophenyl)-2-methoxy-5-(N-(tetrahydrofuran-3-yl)sulfamoyl) benzamide] | 435 nM |
| COc1ccc(S(=O)(=O)N[C@H]2CCOC2)cc1C(=O)Nc1cccc(F)c1OC [Compound 134, (S)—N-(3-fluoro-2-methoxyphenyl)-2-methoxy-5-(N-(tetrahydrofuran-3-yl)sulfamoyl)benzamide] | 0.5 nM |
| COc1ccc(S(=O)(=O)N[C@H]2CCOC2)cc1C(=O)Nc1cc(F)ccc1Cl [Compound 70, (S)—N-(2-Chloro-5-fluorophenyl)-2-methoxy-5-(N-(tetrahydrofuran-3-yl)sulfamoyl)benzamide] | 0.3 nM |
| COc1ccc(S(=O)(=O)N[C@H]2CCOC2)cc1C(=O)Nc1cc(F)c(F)c(F)c1 [Compound 97, (S)-2-Methoxy-5-(N-(tetrahydrofuran-3-yl)sulfamoyl)-N-(3,4,5-trifluorophenyl) benzamide] | 186 nM |
| COc1ccc(S(=O)(=O)N[C@H]2CCOC2)cc1C(=O)Nc1ccc(F)c(C)c1 [Compound 4, (S)—N-(4-Fluoro-3-methylphenyl)-2-methoxy-5-(N-(tetrahydrofuran-3-yl)sulfamoyl)benzamide] | 0.7 nM |
| COc1ccc(S(=O)(=O)N[C@H]2CCOC2)cc1C(=O)Nc1c(F)cc(F)cc1Cl [Compound 78, (S)—N-(2-Chloro-4,6-difluorophenyl)-2-methoxy-5-(N-(tetrahydrofuran-3-yl)sulfamoyl)benzamide] | 2.4 nM |
| COc1ccc(S(=O)(=O)NC2CC(F)(F)C2)cc1C(=O)Nc1ccc(F)c(C)c1 [Compound 1, 5-(N-(3,3-Difluorocyclobutyl)sulfamoyl)-N-(4-fluoro-3-methylphenyl)-2-methoxybenzamide] | 2.3 nM |
| COc1ccc(S(=O)(=O)NC2CC[C@H](O)C2)cc1C(=O)Nc1ccc(F)c(C)c1 (stereo in doubt) [Compound 15a, N-(4-Fluoro-3-methylphenyl)-5-(N-((cis)-3-hydroxycyclopentyl)sulfamoyl)-2-methoxybenzamide] | 2 nM |
| COc1ccc(S(=O)(=O)N[C@H]2CCOC2)cc1C(=O)Nc1ccc(C(F)(F)F)cc1 [Compound 101, (S)-2-Methoxy-5-(N-(tetrahydrofuran-3-yl)sulfamoyl)-N-(4-(trifluoromethyl)phenyl)benzamide] | 219 nM |
| COc1ccc(S(=O)(=O)NC2(C)COC2)cc1C(=O)Nc1ccc(F)c(C)c1 [Compound 9, N-(4-Fluoro-3-methylphenyl)-2-methoxy-5-(N-(3-methyloxetan-3-yl)sulfamoyl) benzamide] | 2.2 nM |
| COc1ccc(S(=O)(=O)N[C@H]2CCOC2)cc1C(=O)Nc1cc(F)ccc1F [Compound 69, (S)—N-(2,5-Difluorophenyl)-2-methoxy-5-(N-(tetrahydrofuran-3-yl)sulfamoyl) benzamide] | 1.5 nM |
| COc1ccc(S(=O)(=O)N[C@H]2CCOC2)cc1C(=O)Nc1cccc(Cl)c1 [Compound 126, (S)—N-(3-Chlorophenyl)-2-methoxy-5-(N-(tetrahydrofuran-3-yl)sulfamoyl) benzamide] | 12 nM |
| COc1ccc(S(=O)(=O)N[C@H]2CCOC2)cc1C(=O)Nc1cc(Cl)ccc1Cl [Compound 71, (S)—N-(2,5-Dichlorophenyl)-2-methoxy-5-(N-(tetrahydrofuran-3-yl)sulfamoyl)benzamide] | 1.6 nM |
| COc1ccc(S(=O)(=O)N[C@@H]2CCNC2)cc1C(=O)Nc1ccc(F)c(C)n1 [Compound 177, (R)—N-(5-Fluoro-6-methylpyridin-2-yl)-2-methoxy-5-(N-(pyrrolidin-3-yl)sulfamoyl)benzamide] | 4.2 nM |
| COc1ccc(S(=O)(=O)N[C@H]2CCOC2)cc1C(=O)Nc1cccc(F)c1Cl [Compound 3, (S)—N-(2-Chloro-3-fluorophenyl)-2-methoxy-5-(N-(tetrahydrofuran-3-yl)sulfamoyl) benzamide] | 1.7 nM |
| COc1ccc(S(=O)(=O)NC(C)C(N)=O)cc1C(=O)Nc1ccc(F)c(C)c1 (centres unmarked) [Compound 12, 5-(N-(1-Amino-1-oxopropan-2-yl)sulfamoyl)-N-(4-fluoro-3-methylphenyl)-2-methoxybenzamide] | 9.3 nM |
| COc1ccc(S(=O)(=O)N[C@H]2C[C@@H](C)C2)cc1C(=O)Nc1ccc(F)c(C)c1 [Compound 7a, N-(4-Fluoro-3-methylphenyl)-2-methoxy-5-(N-((cis)-3-methylcyclobutyl)sulfamoyl)benzamide] | 3.8 nM |
| COc1ccccc1NC(=O)c1cc(S(=O)(=O)N[C@H]2CCOC2)ccc1OC [Compound 166, (S)-2-Methoxy-N-(2-methoxyphenyl)-5-(N-(tetrahydrofuran-3-yl)sulfamoyl) benzamide] | 0.16 nM |
| COc1ccc(S(=O)(=O)N[C@H]2CCOC2)cc1C(=O)Nc1ccncn1 [Compound 165, (S)-2-Methoxy-N-(pyrimidin-4-yl)-5-(N-(tetrahydrofuran-3-yl)sulfamoyl) benzamide] | 511 nM |
